Source: patent US6759416B2, “Anticancer conjugates of camptothecin and unsaturated fatty acids” (priority 2002, dated 2004)
Like-named read-outs stand apart in the source and are kept apart here.

Columns and labels:
L1210 leukemia cells = assay: Anticancer activity assay in vitro: 48-h 3H-thymidine incorporation (proliferation) assay; assay type: cell-based, murine; settings: for DNA fragmentation / apoptosis: L1210 cells, data not shown; for IC50: L1210 leukemia cells, 48-h proliferation assay, 3H-thymidine uptake, mean of three experiments
Experimental: L1210 leukemia cells (2.5×10^4cells/well) in RPMI-1640 medium supplemented with 10% FCS medium were seeded in a 96-well plate. Drugs (10 μL) at increasing concentrations were added to each well, and the total volume was adjusted to 0.1 mL/well using the same medium. HCPT was used as a positive control. The plate was incubated for 24 h at 37° C. followed by addition of 10 μL of ^3H-thymidine (20 μCi/mL). The plate was incubated for another 24 h. The cells were harvested, and radioactivity was counted using the Packard Matrix 96 beta counter. The results were expressed as the minimal concentration that inhibits ^3H-thymidine incorporation by 50% (IC50). Percent growth inhibition was calculated as follows: [(total cpm—experimental cpm)/total cpm]×100. […] Doxorubicin (Dox) was used as a positive control.

L1210 leukemia = test system: L1210 leukemia
Experimental: The compounds were tested in male BDF1 mice (18-22 g, 6 mice/group) bearing L1210 leukemia cells. Tumor lines were propagated in DBA/2 female mice with cell (10^5 cells/mouse) transfer every 7 days. Diluted ascitic fluid (0.1 mL) containing 10^5 leukemia cells were inoculated, i.p. in mice on day 0. Mice were injected with 0.1 mL of drug preparation.
A conjugate of HCPT and piperidinopiperidine, PP-HCPT, was synthesized, and its antitumor activity was evaluated against L1210 leukemia in mice.
DHA-HCPT was also tested using multiple doses (days 1, 5 and 9).

Lewis lung carcinoma = assay: Antitumor activity against Lewis lung carcinoma in mice; assay type: in vivo
Experimental: For example, at a dose of 120 mg/kg, it inhibited tumor growth by 83% while the bodyweight loss was only 10%. The parent HCPT inhibited tumor growth by 57% at a dose of 20 mg/kg with a 24% weight loss. The group treated with DHA-HCPT also lived longer.

colon 38 carcinoma = assay: Antitumor activity against colon 38 carcinoma in mice (single dose, early stage and late stage); assay type: in vivo; settings: for weight loss: stated as loss
Description: However, DHA-HCPT (weight loss of 16%) is less toxic than cisplatin (weight loss of 20%).
The first experiment was designed to evaluate the antitumor activity of the drugs against early tumor, i.e., the tumors were transplanted on day 0, and the drugs were given beginning the next day. The second experiment was designed to evaluate the drug's activity against the established tumor, i.e., the tumors were transplanted on day 0, and the drugs were given when the tumors grew to 3-4 mm in size.
In the late tumor model, at a dose of 100 mg/kg, DHA-HCPT inhibited tumor growth by 80% (Table 10).

[1] = L1210, 48-h cell growth inhibition assay
[2] = 120 mg/kg i.p. on days 1, 5 and 9
[3] = 100 mg/kg i.p. on days 1, 5, and 9
[4] = early stage, 67 mg/kg i.p. on days 1, 5 and 9
[5] = early stage, 100 mg/kg i.p. on days 1, 5 and 9
[6] = late stage, 100 mg/kg i.p. on days 9, 13 and 17
[7] = 125 mg/kg i.p. on days 1, 5 and 9
[8] = 150 mg/kg i.p. on days 1, 5 and 9
[9] = 5 mg/kg i.p. on days 1, 5, and 9

CC[C@@]1(O)C(=O)OCc2c1cc1n(c2=O)Cc2cc3cc(O)ccc3nc2-1 [HCPT, 10-hydroxycamptothecin, reference compound]
DNA fragmentation / apoptosis (L1210 leukemia cells): caused DNA fragmentation and cells died by apoptosis
IC50 (L1210 leukemia cells): 0.23 µM
% ILS (L1210 leukemia; 15 mg/kg i.p. on day 1): 77%
% Weight change (L1210 leukemia; 15 mg/kg i.p. on day 1): −10%
bodyweight loss (L1210 leukemia; 15 mg/kg, one dose, stated as loss): 10%
% ILS (L1210 leukemia; 20 mg/kg i.p. on day 1): 108%
30-day survivors (L1210 leukemia; 20 mg/kg i.p. on day 1, 6 mice/group): 0
% Weight change (L1210 leukemia; 20 mg/kg i.p. on day 1, BDF1 mice, day 0 to lightest weight): −16%
% ILS (Lewis lung carcinoma; 20 mg/kg i.p. on day 1): 16%
% TGI (Lewis lung carcinoma; 20 mg/kg i.p. on day 1): 57%
% Weight change (Lewis lung carcinoma; 20 mg/kg i.p. on day 1): −24%
Tumor weight (g ± SD) (Lewis lung carcinoma; 20 mg/kg i.p. on day 1, control 1.77 ± 0.89): 0.76 ± 0.59 g
weight loss (Lewis lung carcinoma; 20 mg/kg, one dose i.p., stated as loss): 24%

CC/C=C\C/C=C\C/C=C\C/C=C\C/C=C\C/C=C\CCC(=O)Nc1ccc(CN2CCN(C(=O)Oc3ccc4nc5c(cc4c3)Cn3c-5cc4c(c3=O)COC(=O)[C@]4(O)CC)CC2)cc1 (stereo in doubt) [DHA-HCPT, 10-[4-[[4-(cis-4,7,10,13,16,19-Docosahexenoyl)amino]benzyl]-1-piperazino]carbonyl-oxycamptothecin]
fold less potent than HCPT (IC50) (L1210 leukemia cells; [1]): 8 fold
DNA fragmentation / apoptosis (L1210 leukemia cells): caused DNA fragmentation and cells died by apoptosis
IC50 (L1210 leukemia cells): 1.8 µM
% ILS (L1210 leukemia; 40 mg/kg i.p. on day 1): 108%
% Weight change (L1210 leukemia; 40 mg/kg i.p. on day 1): 2%
30-day survivors (L1210 leukemia; 40 mg/kg i.p. on day 1, 6 mice/group): 0
% ILS (L1210 leukemia; 60 mg/kg i.p. on day 1): 138%
% Weight change (L1210 leukemia; 60 mg/kg i.p. on day 1): 1%
30-day survivors (L1210 leukemia; 60 mg/kg i.p. on day 1, 6 mice/group): 0
% ILS (L1210 leukemia; [2]): 323%
% Weight change (L1210 leukemia; [2]): −12%
% ILS (L1210 leukemia; 180 mg/kg i.p. on day 1): 154%
% Weight change (L1210 leukemia; 180 mg/kg i.p. on day 1): −12%
% ILS (Lewis lung carcinoma; 80 mg/kg i.p. on day 1): 23%
% TGI (Lewis lung carcinoma; 80 mg/kg i.p. on day 1): 48%
% Weight change (Lewis lung carcinoma; 80 mg/kg i.p. on day 1): −5%
Tumor weight (g ± SD) (Lewis lung carcinoma; 80 mg/kg i.p. on day 1, control 1.77 ± 0.89): 0.93 ± 0.53 g
% TGI (Lewis lung carcinoma; [3]): 88%
% Weight change (Lewis lung carcinoma; [3]): −9%
Tumor weight (g ± SD) (Lewis lung carcinoma; 100 mg/kg i.p. on days 1, 5, and 9, control 1.20 ± 0.61): 0.15 ± 0.10 g
% ILS (Lewis lung carcinoma; 120 mg/kg i.p. on day 1): 33%
% TGI (Lewis lung carcinoma; 120 mg/kg i.p. on day 1): 83%
% Weight change (Lewis lung carcinoma; 120 mg/kg i.p. on day 1): −10%
Tumor weight (g ± SD) (Lewis lung carcinoma; 120 mg/kg i.p. on day 1, control 1.77 ± 0.89): 0.31 ± 0.18 g
cures (Lewis lung carcinoma; 120 mg/kg, multiple doses (days 1, 5, and 9)): 50%
bodyweight loss (Lewis lung carcinoma; 120 mg/kg, one dose i.p., stated as loss): 10%
weight loss (colon 38 carcinoma; 120 mg/kg given once): 16%
% TGI (colon 38 carcinoma; 120 mg/kg i.p. on day 1): 91%
% Weight change (colon 38 carcinoma; 120 mg/kg i.p. on day 1): −16%
Tumor weight (g ± SD) (colon 38 carcinoma; 120 mg/kg i.p. on day 1, control 1.20 ± 0.84): 0.11 ± 0.09 g
% TGI (colon 38 carcinoma; [4]): 43%
% Weight change (colon 38 carcinoma; [4]): −10%
Tumor weight (g ± SD) (colon 38 carcinoma; early stage, 67 mg/kg i.p. on days 1, 5 and 9, control 1.13 ± 0.39): 0.64 ± 0.50 g
% TGI (colon 38 carcinoma; [5]): 78%
% Weight change (colon 38 carcinoma; [5]): −12%
Tumor weight (g ± SD) (colon 38 carcinoma; early stage, 100 mg/kg i.p. on days 1, 5 and 9, control 1.13 ± 0.39): 0.25 ± 0.22 g
% TGI (colon 38 carcinoma; early stage, 150 mg/kg i.p. on days 1 and 5): 84%
Tumor weight (g ± SD) (colon 38 carcinoma; early stage, 150 mg/kg i.p. on days 1 and 5, control 1.13 ± 0.39): 0.18 ± 0.12 g
% TGI (colon 38 carcinoma; [6]): 80%
% Weight change (colon 38 carcinoma; [6]): −14%
Tumor weight (g ± SD) (colon 38 carcinoma; late stage, 100 mg/kg i.p. on days 9, 13 and 17, control 1.13 ± 0.39): 0.22 ± 0.14 g
% TGI (colon 38 carcinoma; late stage, 150 mg/kg i.p. on days 9 and 13): 79%
Tumor weight (g ± SD) (colon 38 carcinoma; late stage, 150 mg/kg i.p. on days 9 and 13, control 1.13 ± 0.39): 0.24 ± 0.18 g

O=P1(N(CCCl)CCCl)NCCCO1 (stereo not drawn) [Cyclophosphamide, reference compound]
% ILS (L1210 leukemia; [7]): 173%
% Weight change (L1210 leukemia; [7]): −15%
30-day survivors (cures) (L1210 leukemia; 125 mg/kg i.p. on days 1, 5 and 9, 6 mice/group): 0
% ILS (L1210 leukemia; 200 mg/kg i.p. on day 1): 123%
% Weight change (L1210 leukemia; 200 mg/kg i.p. on day 1): −9%
30-day survivors (L1210 leukemia; 200 mg/kg i.p. on day 1, 6 mice/group): 0

CC[C@@]1(O)C(=O)OCc2c1cc1n(c2=O)Cc2cc3cc(OC(=O)N4CCC(N5CCCCC5)CC4)ccc3nc2-1 [PP-HCPT, 10-[4-(1-Piperidino)-1-piperidino]carbonyloxycamptothecin]
fold less potent than DHA-HCPT (IC50) (L1210 leukemia cells; [1]): 16 fold
fold less potent than HCPT (IC50) (L1210 leukemia cells; [1]): 128 fold
IC50 (L1210 leukemia cells): 30 µM
% ILS (L1210 leukemia; 37 mg/kg i.p. on day 1): 46%
% Weight change (L1210 leukemia; 37 mg/kg i.p. on day 1): 5%
30-day survivors (L1210 leukemia; 37 mg/kg i.p. on day 1, 6 mice/group): 0
% ILS (L1210 leukemia; 73 mg/kg i.p. on day 1): 77%
% Weight change (L1210 leukemia; 73 mg/kg i.p. on day 1): 2%
30-day survivors (L1210 leukemia; 73 mg/kg i.p. on day 1, 6 mice/group): 0
% ILS (L1210 leukemia; [8]): 123%
% Weight change (L1210 leukemia; [8]): −18%

COc1cccc2c1C(=O)c1c(O)c3c(c(O)c1C2=O)C[C@@](O)(C(=O)CO)C[C@@H]3O[C@H]1C[C@H](N)[C@H](O)[C@H](C)O1 [Dox, Doxorubicin, reference compound]
IC50 (L1210 leukemia cells; Mus musculus): 0.18 ± 0.09 µM

N.N.[Cl][Pt][Cl] [Cisplatin, reference compound]
% TGI (Lewis lung carcinoma; [9]): 73%
% Weight change (Lewis lung carcinoma; [9]): −19%
Tumor weight (g ± SD) (Lewis lung carcinoma; 5 mg/kg i.p. on days 1, 5, and 9, control 1.20 ± 0.61): 0.32 ± 0.17 g
% TGI (colon 38 carcinoma; 10 mg/kg i.p. on day 1): 88%
% Weight change (colon 38 carcinoma; 10 mg/kg i.p. on day 1): −20%
Tumor weight (g ± SD) (colon 38 carcinoma; 10 mg/kg i.p. on day 1, control 1.20 ± 0.84): 0.14 ± 0.07 g
weight loss (colon 38 carcinoma; given once (10 mg/kg per Table 8)): 20%
